In ChEMBL document CHEMBL1201862, “PubChem BioAssay data set” (2004):
Active and inactive are the calls of the source.

Experiments:
[1] = cytotoxicity in HEK-293T cells, dose response, cytotoxicity control for BCR NF-kB inhibitor project, luminescence, B-cell screen hits (AID 489021); assay type: functional, cell-based;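 further: HEK-293T cells carrying an NF-kB luciferase reporter; cells exposed to compound for about 14 hours before viability readout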
[2] = molecular target: G-protein coupled receptor 55 (Homo sapiens, UniProt Q9Y2T6); test: GPR55 antagonists, SAR follow-up, counter-screen for GPR35 antagonist project, imaging, image-based (AID 2397); assay type: functional
[3] = molecular target: G-protein coupled receptor 35 (Homo sapiens, UniProt Q9HC97); test: SAR Analysis for the identification of Selective Antagonists of ERK1/2 Activity in GPR35-Overexpressing U2OS Cells. [Related pubchem assays: 2079, 2058 ]; assay type: functional, cell-based
[4] = molecular target: Ion channel NompC (Danio rerio, UniProt Q7T1G6); test: Dose response cell-based high-throughput screening assay for agonists of the transient receptor potential channel N1 (TRPN1). [Related pubchem assays (depositor defined):AID1424, AID1448]; assay type: functional
[5] = molecular target: T1, Corticotropin-releasing factor receptor 2/Corticotropin-releasing factor-binding protein (Homo sapiens, UniProt P24387+Q13324); test: activators of CRF receptor 2 with binding protein – uHTS hits, confirmation (AID 602473); assay type: functional; settings: read-out: EC50_Mean
T1 sequence (Q13324 whole entry): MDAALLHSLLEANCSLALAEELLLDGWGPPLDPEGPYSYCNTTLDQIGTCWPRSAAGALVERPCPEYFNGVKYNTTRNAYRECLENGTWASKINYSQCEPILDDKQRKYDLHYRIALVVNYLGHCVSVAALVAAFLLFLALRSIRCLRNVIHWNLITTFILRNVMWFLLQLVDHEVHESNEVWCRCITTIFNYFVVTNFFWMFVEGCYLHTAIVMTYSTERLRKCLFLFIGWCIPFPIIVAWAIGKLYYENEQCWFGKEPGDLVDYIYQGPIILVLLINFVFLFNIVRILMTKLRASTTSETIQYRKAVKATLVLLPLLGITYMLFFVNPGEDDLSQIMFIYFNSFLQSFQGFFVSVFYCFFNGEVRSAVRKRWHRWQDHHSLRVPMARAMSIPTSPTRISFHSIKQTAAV
T1 sequence (P24387 whole entry): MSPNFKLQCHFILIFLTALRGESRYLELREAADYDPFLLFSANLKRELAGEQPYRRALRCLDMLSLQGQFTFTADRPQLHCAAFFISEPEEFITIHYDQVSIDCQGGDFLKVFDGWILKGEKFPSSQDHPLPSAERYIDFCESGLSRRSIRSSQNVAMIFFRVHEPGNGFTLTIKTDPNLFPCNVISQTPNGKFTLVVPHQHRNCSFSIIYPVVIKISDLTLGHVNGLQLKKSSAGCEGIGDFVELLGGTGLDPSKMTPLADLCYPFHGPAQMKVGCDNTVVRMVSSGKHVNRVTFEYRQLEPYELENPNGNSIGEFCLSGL

[6] = molecular target: Mucolipin-3 (Homo sapiens, UniProt Q8TDD5); test: Fluorescence counterscreen assay for […] agonists: dose response cell-based high-throughput screening assay to identify agonists of the transient receptor potential channel ML3 (TRPML3). [Related pubchem assays: 1424, 1448 ]; assay type: functional
[7] = molecular target: Intestinal-type alkaline phosphatase (Homo sapiens, UniProt P09923); test: inhibition of human intestinal alkaline phosphatase – biochemical, dose response (AID 488876); assay type: functional
[8] = cytotoxicity toward DRD oncogenic fibroblasts, dose response, cell-based, non-viral oncogenic, luminescence (AID 1934); assay type: functional; settings: Homo sapiens
[9] = test system: BJ; test: cytotoxicity toward BJ-TERT-LT-ST fibroblasts, dose response, cell-based, RAS-independent, luminescence (AID 1935); assay type: functional; settings: Homo sapiens;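 further: BJ fibroblasts immortalized with TERT plus LT and ST oncogenes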
[10] = molecular target: Intestinal-type alkaline phosphatase (Mus musculus, UniProt P24822); test: PubChem AID 488785; assay type: functional
[11] = test system: BJ; test: cytotoxicity toward BJ-TERT fibroblasts, dose response, cell-based, RAS-independent, luminescence (AID 1933); assay type: functional; settings: Homo sapiens
[12] = molecular target: T2, Alkaline phosphatase, tissue-nonspecific isozyme (Homo sapiens, UniProt P05186); test: TNAP enzyme inhibition by screening hits, dose response, selectivity assay for mouse IAP inhibitor project, biochemical, human TNAP, uHTS hits (AID 488906); assay type: functional
T2 sequence (P05186 whole entry): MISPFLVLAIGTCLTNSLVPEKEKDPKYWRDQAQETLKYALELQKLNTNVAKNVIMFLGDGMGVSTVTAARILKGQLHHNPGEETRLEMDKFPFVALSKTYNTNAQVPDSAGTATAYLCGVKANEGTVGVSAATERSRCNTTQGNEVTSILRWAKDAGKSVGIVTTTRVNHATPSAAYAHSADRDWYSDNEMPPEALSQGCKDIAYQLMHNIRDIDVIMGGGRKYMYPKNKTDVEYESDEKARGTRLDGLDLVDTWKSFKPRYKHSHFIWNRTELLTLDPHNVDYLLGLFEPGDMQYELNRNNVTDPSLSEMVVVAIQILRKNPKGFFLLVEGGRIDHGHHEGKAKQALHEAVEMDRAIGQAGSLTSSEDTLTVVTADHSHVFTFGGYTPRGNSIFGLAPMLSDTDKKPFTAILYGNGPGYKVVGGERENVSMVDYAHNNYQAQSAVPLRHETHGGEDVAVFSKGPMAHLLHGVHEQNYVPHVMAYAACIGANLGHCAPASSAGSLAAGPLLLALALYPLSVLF

[13] = test system: BJ; test: cells; assay type: functional, cell-based; settings: Homo sapiens
[14] = molecular target: T3, Runt-related transcription factor 1/Core-binding factor subunit beta (Homo sapiens, UniProt Q01196+Q13951); test: inhibitors of RUNX1 Runt–CBFb-SMMHC binding, biochemical, TR-FRET (AID 1438); assay type: protein assay
[15] = molecular target: T3, Runt-related transcription factor 1/Core-binding factor subunit beta; test: inhibitors of RUNX1 Runt–CBFb-SMMHC binding, primary screen, biochemical, FRET, Cerulean-Runt, Venus-CBFb-SMMHC, uHTS (AID 1434); assay type: protein assay;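 further: partner is the CBFb-SMMHC leukemia fusion protein rather than wild-type CBFb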

T3 sequence (Q01196 whole entry, the tested form may be a part): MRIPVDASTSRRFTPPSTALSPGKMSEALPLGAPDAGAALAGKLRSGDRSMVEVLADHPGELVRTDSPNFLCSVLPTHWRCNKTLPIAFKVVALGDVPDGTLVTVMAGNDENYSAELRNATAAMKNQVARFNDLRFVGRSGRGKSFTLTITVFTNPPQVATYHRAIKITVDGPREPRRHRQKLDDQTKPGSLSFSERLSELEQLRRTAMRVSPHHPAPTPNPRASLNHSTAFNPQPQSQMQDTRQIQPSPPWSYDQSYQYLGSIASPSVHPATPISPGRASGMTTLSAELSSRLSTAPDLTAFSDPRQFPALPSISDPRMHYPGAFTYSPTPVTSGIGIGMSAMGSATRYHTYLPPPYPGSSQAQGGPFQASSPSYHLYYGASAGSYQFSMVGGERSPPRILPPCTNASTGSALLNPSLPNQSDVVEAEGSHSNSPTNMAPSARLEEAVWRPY
T3 sequence (Q13951 whole entry, the tested form may be a part): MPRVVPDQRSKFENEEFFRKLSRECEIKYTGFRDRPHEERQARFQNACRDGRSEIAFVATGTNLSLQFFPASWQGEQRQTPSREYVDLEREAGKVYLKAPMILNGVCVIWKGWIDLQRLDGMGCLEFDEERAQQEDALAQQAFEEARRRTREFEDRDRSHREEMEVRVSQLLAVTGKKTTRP
Sequence of Intestinal-type alkaline phosphatase (Homo sapiens, UniProt P09923) (P09923 whole entry): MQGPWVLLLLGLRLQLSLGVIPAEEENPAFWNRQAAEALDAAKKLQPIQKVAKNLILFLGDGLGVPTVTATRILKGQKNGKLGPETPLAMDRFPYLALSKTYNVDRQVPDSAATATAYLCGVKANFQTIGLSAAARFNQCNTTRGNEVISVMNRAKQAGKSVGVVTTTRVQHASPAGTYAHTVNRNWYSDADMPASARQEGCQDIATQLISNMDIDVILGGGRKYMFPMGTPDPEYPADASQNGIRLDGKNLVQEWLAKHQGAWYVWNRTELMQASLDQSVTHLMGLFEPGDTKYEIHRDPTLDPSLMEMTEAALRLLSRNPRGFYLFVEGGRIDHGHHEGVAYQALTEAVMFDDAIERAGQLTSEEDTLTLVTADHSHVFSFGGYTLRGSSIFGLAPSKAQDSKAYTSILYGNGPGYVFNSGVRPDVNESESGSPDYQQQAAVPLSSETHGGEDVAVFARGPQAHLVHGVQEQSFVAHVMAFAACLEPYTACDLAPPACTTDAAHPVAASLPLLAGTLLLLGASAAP
Sequence of Intestinal-type alkaline phosphatase (Mus musculus, UniProt P24822) (P24822 whole entry): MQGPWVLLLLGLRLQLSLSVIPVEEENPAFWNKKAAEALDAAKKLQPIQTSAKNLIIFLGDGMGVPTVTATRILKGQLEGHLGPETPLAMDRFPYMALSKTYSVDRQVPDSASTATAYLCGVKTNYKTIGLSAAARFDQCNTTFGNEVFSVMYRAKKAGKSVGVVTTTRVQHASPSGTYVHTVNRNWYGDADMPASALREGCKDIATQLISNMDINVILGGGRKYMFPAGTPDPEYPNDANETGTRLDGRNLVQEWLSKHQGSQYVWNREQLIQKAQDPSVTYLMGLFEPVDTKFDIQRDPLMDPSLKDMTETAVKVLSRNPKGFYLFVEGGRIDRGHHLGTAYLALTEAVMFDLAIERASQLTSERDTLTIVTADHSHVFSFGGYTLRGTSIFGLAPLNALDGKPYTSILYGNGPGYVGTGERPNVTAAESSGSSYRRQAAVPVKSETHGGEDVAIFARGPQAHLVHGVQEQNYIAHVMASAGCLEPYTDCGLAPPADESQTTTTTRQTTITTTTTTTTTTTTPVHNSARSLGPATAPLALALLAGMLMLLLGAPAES
Sequence of Mucolipin-3 (Q8TDD5 whole entry): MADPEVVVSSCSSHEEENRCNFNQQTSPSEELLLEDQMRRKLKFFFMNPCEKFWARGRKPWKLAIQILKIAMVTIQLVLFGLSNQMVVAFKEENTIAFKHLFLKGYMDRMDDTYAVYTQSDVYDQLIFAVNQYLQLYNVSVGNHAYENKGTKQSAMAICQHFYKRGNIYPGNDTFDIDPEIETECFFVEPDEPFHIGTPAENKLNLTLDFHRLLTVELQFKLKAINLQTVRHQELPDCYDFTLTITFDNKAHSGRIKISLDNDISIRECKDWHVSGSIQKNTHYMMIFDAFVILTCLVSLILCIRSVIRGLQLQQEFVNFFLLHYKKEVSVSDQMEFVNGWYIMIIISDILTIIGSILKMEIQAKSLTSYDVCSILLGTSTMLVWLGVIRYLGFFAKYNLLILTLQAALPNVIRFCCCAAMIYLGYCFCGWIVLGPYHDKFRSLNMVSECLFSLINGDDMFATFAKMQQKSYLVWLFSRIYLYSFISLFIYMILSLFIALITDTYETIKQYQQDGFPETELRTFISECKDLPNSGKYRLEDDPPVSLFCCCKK
Sequence of G-protein coupled receptor 35 (Q9HC97 whole entry): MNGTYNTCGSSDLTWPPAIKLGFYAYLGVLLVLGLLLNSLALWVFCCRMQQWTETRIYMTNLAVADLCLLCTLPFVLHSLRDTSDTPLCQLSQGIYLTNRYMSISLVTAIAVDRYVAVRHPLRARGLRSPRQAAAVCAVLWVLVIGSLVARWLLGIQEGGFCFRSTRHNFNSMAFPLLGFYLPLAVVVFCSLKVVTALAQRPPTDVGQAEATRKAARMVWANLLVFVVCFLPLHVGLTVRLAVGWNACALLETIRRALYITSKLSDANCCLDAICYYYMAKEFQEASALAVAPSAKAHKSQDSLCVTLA
Sequence of G-protein coupled receptor 55 (Q9Y2T6 whole entry): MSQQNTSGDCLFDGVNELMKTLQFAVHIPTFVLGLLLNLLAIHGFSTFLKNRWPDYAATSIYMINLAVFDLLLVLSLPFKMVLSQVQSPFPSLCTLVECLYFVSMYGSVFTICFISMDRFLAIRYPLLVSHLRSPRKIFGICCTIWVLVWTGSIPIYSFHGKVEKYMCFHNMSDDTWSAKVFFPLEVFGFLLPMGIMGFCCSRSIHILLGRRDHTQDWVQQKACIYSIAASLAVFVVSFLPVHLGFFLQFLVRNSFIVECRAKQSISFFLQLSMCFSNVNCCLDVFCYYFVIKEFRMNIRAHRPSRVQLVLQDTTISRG
Sequence of Ion channel NompC (Q7T1G6 whole entry): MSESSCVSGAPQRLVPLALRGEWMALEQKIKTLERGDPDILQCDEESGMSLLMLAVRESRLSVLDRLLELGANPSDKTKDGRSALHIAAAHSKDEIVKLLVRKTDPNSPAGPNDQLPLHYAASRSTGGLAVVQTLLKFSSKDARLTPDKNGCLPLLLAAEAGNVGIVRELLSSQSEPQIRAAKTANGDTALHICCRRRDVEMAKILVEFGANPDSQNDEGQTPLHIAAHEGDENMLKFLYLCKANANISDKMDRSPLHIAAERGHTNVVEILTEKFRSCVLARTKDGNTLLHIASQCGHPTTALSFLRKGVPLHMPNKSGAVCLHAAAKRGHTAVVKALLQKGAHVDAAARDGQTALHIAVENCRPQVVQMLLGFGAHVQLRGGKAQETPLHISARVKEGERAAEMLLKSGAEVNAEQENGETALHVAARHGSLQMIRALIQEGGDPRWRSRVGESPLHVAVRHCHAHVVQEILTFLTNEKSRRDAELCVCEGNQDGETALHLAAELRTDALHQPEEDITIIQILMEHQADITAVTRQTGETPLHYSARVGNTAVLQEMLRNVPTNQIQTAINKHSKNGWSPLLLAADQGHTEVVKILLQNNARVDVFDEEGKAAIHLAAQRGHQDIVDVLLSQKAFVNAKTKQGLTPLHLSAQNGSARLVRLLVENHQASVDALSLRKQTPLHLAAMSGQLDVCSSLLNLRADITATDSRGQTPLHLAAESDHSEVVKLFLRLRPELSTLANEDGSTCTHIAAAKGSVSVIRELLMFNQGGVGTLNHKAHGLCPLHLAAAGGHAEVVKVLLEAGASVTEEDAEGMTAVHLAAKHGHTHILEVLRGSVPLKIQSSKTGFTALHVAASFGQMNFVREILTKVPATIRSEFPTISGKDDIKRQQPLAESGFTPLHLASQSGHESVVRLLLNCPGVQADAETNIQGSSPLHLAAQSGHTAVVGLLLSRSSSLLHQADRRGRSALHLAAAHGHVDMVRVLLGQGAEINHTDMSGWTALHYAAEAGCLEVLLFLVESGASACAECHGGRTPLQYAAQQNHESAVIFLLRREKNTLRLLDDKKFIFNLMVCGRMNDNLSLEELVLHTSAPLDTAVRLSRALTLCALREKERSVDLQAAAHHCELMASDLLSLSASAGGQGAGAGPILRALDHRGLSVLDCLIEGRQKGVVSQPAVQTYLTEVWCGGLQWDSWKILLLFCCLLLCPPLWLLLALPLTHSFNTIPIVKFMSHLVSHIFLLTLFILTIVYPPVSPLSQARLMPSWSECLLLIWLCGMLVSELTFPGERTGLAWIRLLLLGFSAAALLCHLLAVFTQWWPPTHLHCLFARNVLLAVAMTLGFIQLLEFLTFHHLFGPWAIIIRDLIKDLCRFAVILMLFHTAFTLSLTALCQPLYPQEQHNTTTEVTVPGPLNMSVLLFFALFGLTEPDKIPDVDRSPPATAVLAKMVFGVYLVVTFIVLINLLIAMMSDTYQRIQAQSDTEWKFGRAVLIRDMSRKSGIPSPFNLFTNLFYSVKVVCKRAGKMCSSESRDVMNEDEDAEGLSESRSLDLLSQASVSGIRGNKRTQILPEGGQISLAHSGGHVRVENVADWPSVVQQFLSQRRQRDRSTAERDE

COc1ccc(/C=C2/SC(=S)N(CCCC(=O)Nc3ccc(O)cc3)C2=O)cc1
IC50 [1]: > 80 µM (inactive) | IC50 [2]: > 32 µM (inactive) | IC50 [3]: > 32 µM (not active)

COc1cccc(CN2CCN(Cc3cc4ccccc4[nH]3)CC2CCO)c1 (stereo not given)
EC50 [4]: 5.32 µM (active) | EC50 [5]: 15.1 µM (active) | EC50 [6]: 5.42 µM (active)

CC(C)=CCc1c(O)c(CC=C(C)C)c2c(c1O)-c1cc(O)c(O)cc1CC2
IC50 [7]: > 100 µM (inactive) | EC50 [8]: 14.7 µM (active) | EC50 [9]: > 75 µM (inconclusive) | IC50 [10]: 5.45 µM (active) | EC50 [11]: 8.58 µM (inconclusive) | IC50 [12]: > 100 µM (inactive) | EC50 [13]: > 150 µM (not active)

Cc1cc(O)ccc1Nc1nc2ccccc2nc1Nc1ccc(O)cc1C
IC50 [14]: 7.08 µM (active) | IC50 [15]: 9.73 µM (active)
